# Results published in patent US4547521A, “16-Methoxy-16-methyl prostaglandin E1 derivatives, a process for preparing them and their use as gastroprotective agents” (Gruppo Lepetit S.p.A., priority 1979, dated 1985).
# What was measured:
# [1] = tested on: gastric hypersecretion induced by histamine; assay: Inhibition of histamine-induced gastric hypersecretion in anesthetized perfused-stomach rats (Ghosh and Schild), intravenous; format: in vivo; conditions: i.v., histamine 1.5 mg/kg/h
# Protocol: The compounds of the present invention are potent inhibitors of also gastric hypersecretion also when administered intravenously. This has been confirmed by evaluating the effects, on gastric hypersecretion induced by histamine, produced by a single intravenous administration to anesthetized rats of the compounds of the present invention. The experiments were carried out essentially according to the methodology described by Ghosh and Schild in Brit. J. Pharm. (1958), 13, 54-61. According to this technique the rat is anesthetized with urethane and its stomach is perfused with a dilute sodium hydroxide solution (N/4000 NaOH at a rate of about 1 ml/min) by way of the oesophagus. The pH of the fluid emerging from a cannula in the pylorus is continuously recorded by means of a glass-electrode connected to a direct reading pH-meter and thence to a recorder. In passing through the stomach, the perfusate collects sufficient buffer to act as an approximately linear buffer system over the relevant range, so that the change in pH becomes a measure of acid secretion.
# When the N/4000 NaOH solution is collected after having passed through the unstimulated stomach it gives an initial value of about 6-6.5 (pHunstimulated stomach). A secretory stimulant, histamine in the present case, is then administered intravenously by continuous infusion at a dose of 1.5 mg/kg/h. After a few minutes the pH begins to fall and after about 10 to 20 minutes the secretory effect reaches its maximum and the pH its lowest value (pHhistamine stimulated stomach) which, owing to the continuous infusion of histamine, remains constant. The compounds to be tested are then administered intravenously and the pH is continuously recorded. By considering the highest pH value recorded, which evidences the maximum antisecretory effect reached with the test compound (pHM.A.E.) and using the following equation [formula] the percent inhibition of gastric acid secretion may be easily calculated.
# [2] = tested on: gastric acid secretion; assay: Inhibition of gastric acid secretion in dogs, histamine at fixed dose of 160 μg/kg/h, oral; format: in vivo, mongrel dogs; conditions: histamine fixed dose 160 μg/kg/h
# Protocol: The compounds of the present invention are also potent inhibitors of the gastric secretion when they are administered to laboratory animals by the oral route. […] The gastric antisecretory properties of these compounds when administered per os were evaluated on the basis of their effectiveness in inhibiting the hyperacidity induced by histamine in dogs. Histamine, which is a potent stimulator of the acidic gastric secretion (see Bertaccini et al., Eur. Journ. Pharmacol., 28, 360, 1974), was administered intravenously by continuous infusion during the experiments.
# A group of five mongrel dogs was used in the experiment. […]
# To evaluate the gastric antisecretory oral activity of the compounds of the invention, they were administered by gavage into the main stomach at a given dosage, expressed as μg/kg/h, dissolved in 1 ml of physiological solution, 60 minutes before the secreting agent. […]
# The compounds of the present invention are potent inhibitors of also gastric hypersecretion also when administered intravenously. […] The pH of the fluid emerging from a cannula in the pylorus is continuously recorded by means of a glass-electrode connected to a direct reading pH-meter and thence to a recorder. […]
# [3] = tested on: gastric ulcers caused by indomethacin; assay: Cytoprotective activity: inhibition of gastric ulcers caused by indomethacin in rats, oral; format: in vivo; conditions: indomethacin i.p.
# Protocol: More particularly, the cytoprotective activity of the compounds of the present invention was evaluated on the basis of their effectiveness in inhibiting the formation and reducing the severity of gastric ulcers in rats caused by the administration of a high dose of 1-(p-chlorobenzoyl)-5-methoxy-2-methyl-3-indolyl-acetic acid (indomethacin). The cytoprotective activity occurred at oral doses which are by far lower than those which cause inhibition of the gastric acid secretion. In these experiments the rats were deprived of food the day before the beginning of the experiments but water was given ad libitum. The compounds to be tested were administered by the oral route as a suspension in 0.5% aqueous methocel solution (5 animals/dose), while indomethacin was administered intraperitoneally at […] in the same vehicle. Another group of rats (controls) was administered only with the ulcerogenic agent. The cytoprotective properties of the compounds of this invention were then expressed as "percent inhibition of the ulcers with respect to controls", which can be easily calculated by the following ratio: [formula] wherein A.U.D.(controls) is the average ulceration degree of the stomachs of the controls and A.U.D.(treated animals) is the average ulceration degree of the stomachs of the animals which received both indomethacin and the compound to be tested.
# The A.U.D.s are calculated according to the method described by Thuillier et al. Chim. Ther., 3, 53, 1968, by examining the stomachs of the laboratory animals for possible ulcerations and assigning a score from 0 to 4 which depends on the number and the severity of the observed ulcerations: 0 indicates absence of any ulceration on the gastric wall; 4 indicates perforating ulcerations. A single ulceration degree (S.U.D.) is then calculated for each single stomach. The sum of the S.U.D.s divided by the number of the animals affords the A.U.D. of the stomachs of each group of animals.
smiles,measurement,setting,value
"CCCCC(C)(OC)C(O)/C=C/[C@H]1[C@H](O)CC(=O)[C@@H]1CCCCCCC(=O)OC (single isomer, unassigned) [Example 1F, 11α,15-dihydroxy-16-methoxy-16-methyl-9-oxo-prosta-13(E)-ene-1-oic acid methyl ester]",% Inhibition of the acid gastric secretion,[1]; 2.5 μg/kg,15%
same,% Inhibition of the acid gastric secretion,[1]; 10 μg/kg,63%
same,% Inhibition of the acid gastric secretion,[1]; 20 μg/kg,90%
same,% Inhibition of the acid gastric secretion,[1]; 50 μg/kg,100%
same,block of gastric acid secretion,[2],about 60%
same,percent inhibition of the ulcers with respect to controls,[3]; 3 μg/kg (lowest dose tested),about 43%
same,ED50,"[3]; Rattus norvegicus, calculated by extrapolation, read-out: ED50 (dose which provokes an inhibition of the ulcers with respect to controls of 50%)",6 µg/kg
same,cytoprotective activity (in words),[3],very active even at very low doses
